The METLIN SMRT retention time set (Domingo-Almenara et al. 2019)

Assay: gradient 5% acetonitrile 3 min, to 50% in 2 min, to 85% in 15 min, held 3 min, 100 µL/min
Details: column: Zorbax Extend-C18 2.1 x 50 mm; eluents: water / acetonitrile, 0.1% formic acid
Procedure, shortened: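 A Zorbax Extend-C18 column (2.1 × 50 mm, 1.8 μm) run at 100 μL/min with water and acetonitrile, both containing 0.1% formic acid, separated mixtures of ~100 pure standards. The HPLC was coupled to a quadrupole time-of-flight mass spectrometer operated in positive and negative ionization mode, with dead and dwell volumes of 40 μL and 900 μL. Each retention time was taken from a computationally picked adduct peak that was then manually inspected.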

| Compound | RP-LC retention time [s] |
| --- | --- |
| CC(=O)c1ccc(NC(=O)Cn2cnc3nc4c(cc3c2=O)CCCC4)cc1 | 671 |
| CC(C)c1nc(C2CN(C(=O)Nc3ccc(F)cc3)C2)n(C)n1 | 672 |
| COC(=O)c1cnc2nc(C)ccc2c1Nc1cc(OC)cc(OC)c1 | 735 |
| COc1ccccc1N1C(=O)c2cccc3cccc(c23)C1=O | 832 |
| CCN(CC)c1ncnc2c1cnn2CC(=O)N1CCN(c2ccccn2)CC1 | 549 |
| Cc1cc2n(n1)CCC(=O)N2CCCC(=O)NCCc1ccccc1 | 666 |
| COc1ccc(CNS(=O)(=O)c2cc3n(c2)CCCNC3=O)cc1 | 641 |
| COc1ccc(OCc2nc(-c3ccc(S(=O)(=O)N4CCOCC4)cc3)no2)cc1 | 1000 |
| COc1ccc(N2CCN(C(=O)C3CCCN(c4nc5ccccc5nc4OC)C3)CC2)cc1 (stereo not drawn) | 1100 |
| CCN1CCCC1CNC(=O)c1nnc(-c2ccc(S(=O)(=O)N3CCOCC3)cc2)o1 (stereo not drawn) | 599 |
| O=C(COc1ccc(F)cc1F)Nc1cccc(-c2ccc(N3CCOCC3)nn2)c1 | 660 |
| Cn1cc2nc(SCC(=O)Nc3ccc(Br)cc3)n(CC3CC3)c(=O)c2n1 | 905 |
| CCCn1cc(S(=O)(=O)NCc2cccc(C)c2)c2cccnc21 | 943 |
| CNC(=O)[C@H]1O[C@@H](n2cnc3c(NCc4ccc(N)cc4)ncnc32)C(O)[C@H]1O (stereo partly drawn) | 569 |
| Cc1ccc(C)c(N2CCN(c3ccnc(SCC(=O)Nc4cc(F)ccc4F)n3)CC2)c1 | 1120 |
| COc1cccc(-n2c(=O)c3sccc3n(Cc3nc(-c4ccccc4OC)no3)c2=O)c1 | 861 |
| CCc1cccc(NC(=O)Cn2nc3cc(C)nc(N4CCCC4)n3c2=O)c1 | 798 |
| Cc1cc(C)cc(NC(=O)Cn2c(-c3cnccn3)nc(C)c(C)c2=O)c1 | 774 |
| Cc1cc(C(=O)N2CCOCC2)c2cccc(Cl)c2n1 | 682 |
| COc1cc(CN2CCC[C@H]2c2nc(C3CCOCC3)n[nH]2)cc(OC)c1 | 593 |

| Compound | RP-LC retention time [s] |
| --- | --- |
| CC(=O)N1CCC2(CC1)OC(=O)C(C)=C2C(=O)NC1CCN(Cc2ccccc2)CC1 | 581 |
| Cc1cc(Cl)ccc1S(=O)(=O)N1CCc2nn(C)c(=O)n2CC1 | 756 |
| Cc1ccc(N2CCOCC2)c2c1C(=O)c1ccccc1C2=O | 927 |
| CCOc1ccc(-c2noc(CSc3nccn3-c3ccc(C)cc3)n2)cc1OC | 908 |
| CCc1nc(N2CCNCC2)c(C#N)c2c1COC(C)(C)C2 | 627 |
| O=C(NC1CCN(Cc2ccccc2)CC1)C1CCCN(C(=O)N2CCOc3ccccc32)C1 (stereo not drawn) | 641 |
| Cc1nc(-c2csc(S(=O)(=O)N3CCCC(C(=O)NCc4ccc5c(c4)OCO5)C3)c2)no1 (stereo not drawn) | 880 |
| CCn1cnnc1C1CCN(C(=O)c2ccc3c(c2)OCO3)CC1 | 534 |
| CCC(C)NC(=O)Cn1cccc(-c2nc(-c3ccc(Cl)cc3)no2)c1=O (stereo not drawn) | 852 |
| Cn1c(=O)c(=O)n(CC(=O)NCc2cccc(Br)c2)c2cccnc21 | 717 |
| COc1ccc2c(c1)C1(CCN(C(=O)C(C)C)C1)C(=O)N2 (stereo not drawn) | 646 |
| Cc1ccc(C)c(-n2ccn(Cc3nc(-c4ccc(F)c(Cl)c4)no3)c(=O)c2=O)c1 | 1010 |
| Cc1ccccc1CC(=O)N1CCN(c2cc(C)n3cnnc3n2)CC1 | 608 |
| COC(=O)c1ccc(NS(=O)(=O)c2cc3n(c2)CCN(C)C3=O)cc1 | 682 |
| CSc1ncn(-c2nc(N(C)C)nc(N3CCCCCC3)n2)n1 | 1200 |
| CCc1nn2c(CNS(=O)(=O)c3cc(C)ccc3C)c(-c3ccccc3)nc2s1 | 986 |
| COc1ccc(N2CC(NC(=O)C(=O)c3c[nH]c4ccccc34)CC2=O)cc1 (stereo not drawn) | 761 |
| COc1cc(OC)cc(N2N=NC3C(=O)N(c4ccc(F)cc4)C(=O)C32)c1 (stereo not drawn) | 907 |
| COc1ccc2[nH]cc(CCNC(=O)c3ccc(F)cc3)c2c1 | 778 |
| O=C(NC1CCN(c2cc(-c3ccc(F)cc3)[nH]n2)C1)c1cccc(Br)c1 (stereo not drawn) | 806 |

| Compound | RP-LC retention time [s] |
| --- | --- |
| CCOC(=O)c1cccc(Nc2c(-c3ccc(C(=O)O)cc3)nc3cnccn23)c1 | 726 |
| CCN(CC)C(=O)c1ccc(-c2nc3cc(NS(=O)(=O)c4ccc(F)cc4)ccc3n2C)cc1 | 699 |
| CC1CCN(S(=O)(=O)c2ccc3nn(Cc4ccc(Cl)cc4)c(=O)n3c2)CC1 | 819 |
| Nc1nnc(Cc2ccc3c(c2)OCCO3)o1 | 589 |
| CCn1c(C)c(CCC(=O)NCC2CCCO2)c(=O)n2nc(-c3ccccc3)nc12 (stereo not drawn) | 691 |
| COc1ccc2[nH]cc(CCNC(=O)CN3C(=O)CSc4cccn4-c4ccccc43)c2c1 | 859 |
| CCCn1cc(S(=O)(=O)NCc2cccs2)c2cccnc21 | 833 |
| CN(CCc1noc(-c2ccccc2)n1)C(=O)Nc1ccccc1Cl | 943 |
| Cc1cc(C)cc(NC(=O)C2CCCN(c3nc4ccsc4c(=O)n3-c3cccc(C)c3)C2)c1 (stereo not drawn) | 1100 |
| CCn1c(=O)c2ccccc2n(Cc2nc(-c3ccccc3Cl)no2)c1=O | 1000 |
| CC1=C(c2ccccc2)S(=O)(=O)N=C1N1CCCN(C(=O)c2ccc(C#N)cc2)CC1 | 777 |
| COc1ccc(-c2noc(-c3nn(-c4ccc(F)c(F)c4)ccc3=O)n2)cc1 | 914 |
| Cc1nnc2ccc(N3CCC(C(=O)NCCCN4CCN(c5ccc(F)cc5)CC4)CC3)nn12 | 838 |
| O=C(Cn1cc(-c2ccccc2)c2ncnc(N3CCOCC3)c21)NC1CCCC1 | 717 |
| COc1cc([C@@H]2c3cc4c(cc3[C@H](O)[C@@H](CO)[C@@H]2C(=O)NC2CCCCC2)OCO4)cc(OC)c1OC | 736 |
| CCOC(=O)C1=C(CN2CCOCC2)NC(=O)NC1c1ccc(OC(C)C)cc1 (stereo not drawn) | 628 |
| Cc1ccccc1-c1nnc(CSc2nnc(NC(=O)Cc3ccccc3Cl)s2)o1 | 977 |
| O=C(Nc1ccc(F)cc1F)N1CCC(CCNC(=O)C2(c3ccccc3)CC2)CC1 | 886 |
| O=c1c2sccc2n(Cc2nc(-c3ccc(F)cc3)no2)c(=O)n1Cc1ccccc1 | 1030 |

Further lines, results first:

| RP-LC retention time [s] | Compound |
| --- | --- |
| 919 | O=c1n(Cc2cccc(Cl)c2)nc2ccc(S(=O)(=O)N3CCCC3)cn12 |
| 736 | Cn1c(-c2cccc(C(=O)N3CCN(c4ccccc4)CC3)c2)nc2cccnc21 |
| 1050 | Cn1nccc1-c1cccc(-c2noc(-c3ccc(C#N)cc3)n2)c1 |
| 955 | Cc1ccc(Cn2c(N3CCCC(C(=O)NCC(C)C)C3)nc3ccsc3c2=O)cc1 (stereo not drawn) |
| 730 | CCOc1cc(-c2ccccc2)nc2ccc(NS(=O)(=O)c3ccc(OC)c(OC)c3)cc12 |
| 1100 | Cc1ccc(-c2csc(NC(=O)C3CCC3)n2)cc1C |
| 623 | CNC(=O)c1nc(C(=O)NCCc2ccc(OC)c(OC)c2)cs1 |
| 1000 | Cc1nc(-c2csc(S(=O)(=O)N3CCC(C(=O)N4CC=C(c5ccccc5)CC4)CC3)c2)no1 |
| 627 | CN(C(=O)Cn1nc(Cc2ccncc2)c2ccccc2c1=O)c1ccccc1Cl |
| 732 | Cc1noc(C2CN(C(=O)Nc3ccccc3Cl)CC23CCOCC3)n1 (stereo not drawn) |
| 1080 | CCOc1ccc(N2C(=O)C3N=NN(Cc4nc(-c5cccc(C(F)(F)F)c5)no4)C3C2=O)cc1 (stereo not drawn) |
| 566 | Cc1ccc(CN2CCn3c(nnc3[C@@H]3C[C@@H](O)CN3Cc3cccnc3)C2)s1 |
| 693 | Cc1nc(-c2ccc(C(=O)NC(C)C)cc2)no1 |
| 895 | COC[C@@H]1CN(S(=O)(=O)c2ccc(C(C)C)cc2)C[C@H]1c1ccccn1 |
| 997 | COc1cccc(-c2noc(C3CCCN3C(=O)c3ccc(C)s3)n2)c1 (stereo not drawn) |
| 914 | CC(C)c1ccc(NC(=O)C2CCN(C(=O)c3ncn4c3COC(c3ccccc3)C4)CC2)cc1 (stereo not drawn) |
| 924 | Cc1noc(C2(NC(=O)c3ccc(Br)cc3)CCCCC2)n1 |
| 964 | Cc1cc(OCC(=O)Nc2ccccc2C#N)nc(-c2ccc(F)cc2)n1 |
| 800 | O=C(NCc1cccc(Br)c1)C1CCN(C(=O)C2Sc3ccccc3NC2=O)CC1 (stereo not drawn) |
| 636 | Cn1cnnc1SCC(=O)N1CCCc2ccccc21 |
| 833 | Cc1sc2ccn(C)c(=O)c2c1C(=O)NCc1ccc(OC(C)C)cc1 |
| 1230 | Cc1ccccc1-c1noc(C2CCCN2S(=O)(=O)c2ccc(Br)s2)n1 (stereo not drawn) |
| 1180 | Cc1cc(C(=O)Nc2nc(-c3ccccc3)c(-c3ccccc3)s2)no1 |
| 700 | CO[C@H]1C(=O)N(C(C)C)[C@H]1C1CCN(S(=O)(=O)c2cccnc2)CC1 |
| 543 | O=C(c1ccc(F)c(F)c1)N1CCN(CCn2cccn2)CC1 |
| 987 | Cc1ccc(NC(=O)Cn2cc3c(n2)CCC(C)C3)c(C)c1 (stereo not drawn) |
| 690 | CCCNC(=O)C1CCCN(c2ccc(SCC(=O)Nc3ccccc3C(F)(F)F)nn2)C1 (stereo not drawn) |
| 846 | CCOC(=O)C(Cc1ccc(O)cc1)Nc1nc2ccccc2o1 (stereo not drawn) |
| 653 | COc1ccc(-c2cn3c(CC(=O)Nc4nccs4)csc3n2)cc1OC |
